In ChEMBL document CHEMBL1201862, “PubChem BioAssay data set” (2004):
The source made the active and inactive calls.

How the values were obtained:
[1] = loss of viability in HepG2 cells – cell-based, CellTiter-Glo, cherry-picked, cytotoxicity control for Shn3 inhibitor project, dose response (AID 624134); format: functional
[2] = target: T1, Corticotropin-releasing factor receptor 2/Corticotropin-releasing factor-binding protein (Homo sapiens, UniProt P24387+Q13324); experiment: activators of CRF receptor 2 with binding protein – uHTS hits, confirmation (AID 602473); format: functional; settings: read-out: EC50_Mean
T1 sequence (Q13324 whole entry): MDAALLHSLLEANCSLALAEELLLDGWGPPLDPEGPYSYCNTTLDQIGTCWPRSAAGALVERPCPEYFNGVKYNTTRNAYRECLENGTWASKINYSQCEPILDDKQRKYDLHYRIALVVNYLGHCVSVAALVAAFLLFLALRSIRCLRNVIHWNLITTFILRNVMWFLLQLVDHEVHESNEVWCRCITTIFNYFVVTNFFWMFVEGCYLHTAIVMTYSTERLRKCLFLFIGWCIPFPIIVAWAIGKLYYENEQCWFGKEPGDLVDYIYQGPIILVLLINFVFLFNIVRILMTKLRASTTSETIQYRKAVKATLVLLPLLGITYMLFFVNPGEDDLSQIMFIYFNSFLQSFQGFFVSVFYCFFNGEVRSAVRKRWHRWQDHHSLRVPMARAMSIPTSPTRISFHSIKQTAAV
T1 sequence (P24387 whole entry): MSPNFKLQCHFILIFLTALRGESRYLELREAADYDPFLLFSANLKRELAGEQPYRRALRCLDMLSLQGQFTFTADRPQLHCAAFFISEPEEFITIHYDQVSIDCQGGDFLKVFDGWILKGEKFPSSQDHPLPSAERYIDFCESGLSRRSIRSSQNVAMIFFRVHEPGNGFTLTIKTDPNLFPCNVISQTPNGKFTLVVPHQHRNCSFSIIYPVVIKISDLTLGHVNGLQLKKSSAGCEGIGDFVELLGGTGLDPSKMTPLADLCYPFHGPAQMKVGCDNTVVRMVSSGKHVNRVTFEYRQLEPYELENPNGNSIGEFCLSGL

[3] = non-specific 3'UTR reporter inhibition in Clone20-Shn3RL – cell-based, Renilla luciferase, cherry-picked, counter-screen for Shn3 inhibitor project, dose response (AID 624133); format: functional
[4] = reduction of Shn3 3'UTR-driven luciferase in osteoblasts – cell-based, Clone20 osteoblasts, firefly luciferase, cherry-picked, dose response (AID 624132); format: functional;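 note: firefly luciferase luminescence from reporter carrying the Shn3 3'UTR in osteoblasts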
[5] = microbe, parasite or virus in culture; format: functional; settings: Mycobacterium tuberculosis
[6] = target: T2, Cytochrome P450 1A2 (Homo sapiens, UniProt P05177);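 note: PubChem cytochrome P450 panel assay, CYP1A2 panel member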
T2 sequence (P05177 whole entry): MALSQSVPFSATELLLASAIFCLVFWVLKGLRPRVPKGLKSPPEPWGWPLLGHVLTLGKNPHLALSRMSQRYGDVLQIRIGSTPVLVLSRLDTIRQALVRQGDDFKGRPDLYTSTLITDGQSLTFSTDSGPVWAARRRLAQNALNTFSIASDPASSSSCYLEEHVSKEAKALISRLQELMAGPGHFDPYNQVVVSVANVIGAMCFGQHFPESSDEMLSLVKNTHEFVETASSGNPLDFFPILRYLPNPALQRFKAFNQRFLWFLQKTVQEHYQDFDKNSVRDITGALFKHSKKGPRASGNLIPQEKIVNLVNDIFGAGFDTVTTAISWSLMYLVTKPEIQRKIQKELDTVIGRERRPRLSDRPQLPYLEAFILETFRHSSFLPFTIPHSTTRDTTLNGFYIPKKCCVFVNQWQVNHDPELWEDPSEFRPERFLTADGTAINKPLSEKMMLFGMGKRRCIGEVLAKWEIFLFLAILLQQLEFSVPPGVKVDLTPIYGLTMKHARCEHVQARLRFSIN

[7] = target: Cytochrome P450 3A4 (Homo sapiens, UniProt P08684);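 note: CYP3A4 tested as one member of a cytochrome P450 panel screen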
Chain of Cytochrome P450 3A4 (P08684 whole entry): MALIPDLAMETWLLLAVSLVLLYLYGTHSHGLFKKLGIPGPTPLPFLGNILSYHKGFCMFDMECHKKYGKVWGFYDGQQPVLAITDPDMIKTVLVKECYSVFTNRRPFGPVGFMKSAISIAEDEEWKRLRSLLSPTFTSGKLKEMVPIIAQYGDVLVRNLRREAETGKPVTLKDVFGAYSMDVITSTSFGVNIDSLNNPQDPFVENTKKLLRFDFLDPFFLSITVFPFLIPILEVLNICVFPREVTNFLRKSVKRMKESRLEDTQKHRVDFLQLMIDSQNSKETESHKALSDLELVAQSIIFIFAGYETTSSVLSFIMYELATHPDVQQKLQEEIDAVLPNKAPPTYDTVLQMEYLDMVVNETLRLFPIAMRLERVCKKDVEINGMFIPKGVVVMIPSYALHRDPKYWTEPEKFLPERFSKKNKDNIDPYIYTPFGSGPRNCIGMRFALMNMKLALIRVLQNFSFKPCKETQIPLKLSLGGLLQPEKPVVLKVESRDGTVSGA

[8] = Trypanosoma cruzi growth suppression in host cells – NIH3T3 host cells, beta-gal luminescence, confirmation (AID 2044); format: functional, cell-based;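 note: intracellular parasites grown in NIH/3T3 mouse fibroblasts as host cells; luminescent beta-galactosidase reporter signal from transgenic T. cruzi replicating inside host cells; inhibitors lower the luminescence signal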
[9] = target: T3, Heat shock factor protein 1 (Mus musculus, UniProt P38532); experiment: enhancement of HSF1-driven luciferase signal – cell-based, NIH3T3, luminescence, dose retest, confirmation (AID 435004); format: functional;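 note: stress induced by proteasome inhibitor MG132 added 30 min after compound; luciferase reporter driven by HSF1 response element in NIH3T3 cells; actives raise luminescence as potentiators of the MG132 stress response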
T3 sequence (P38532 whole entry): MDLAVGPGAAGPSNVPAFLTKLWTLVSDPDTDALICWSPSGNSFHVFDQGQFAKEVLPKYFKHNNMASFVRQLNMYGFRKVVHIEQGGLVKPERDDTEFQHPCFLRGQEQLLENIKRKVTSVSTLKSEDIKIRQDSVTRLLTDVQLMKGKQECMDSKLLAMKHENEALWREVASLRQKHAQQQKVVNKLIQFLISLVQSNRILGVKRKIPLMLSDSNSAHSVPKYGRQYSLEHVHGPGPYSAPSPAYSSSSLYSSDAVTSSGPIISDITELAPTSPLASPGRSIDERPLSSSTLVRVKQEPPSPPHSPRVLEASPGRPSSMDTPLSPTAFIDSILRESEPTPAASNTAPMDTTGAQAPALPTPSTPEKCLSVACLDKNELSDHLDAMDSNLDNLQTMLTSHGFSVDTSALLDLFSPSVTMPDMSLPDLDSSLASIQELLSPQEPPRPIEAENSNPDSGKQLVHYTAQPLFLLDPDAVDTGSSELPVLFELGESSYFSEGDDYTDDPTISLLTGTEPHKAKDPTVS

[10] = NIH3T3 cell viability loss – ATP luminescence, mouse fibroblasts, counter-screen, dose response (AID 2010); format: functional, cell-based;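 note: cells exposed to compound for about 90 hours before reading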
[11] = target: Cytochrome P450 2C19 (Homo sapiens, UniProt P33261); experiment: Cytochrome panel assay with activity outcomes. Panel member name: p450-cyp2c19 Compounds with AC50 equal or less than 10 uM are considered active; format: functional
Chain of Cytochrome P450 2C19 (P33261 whole entry): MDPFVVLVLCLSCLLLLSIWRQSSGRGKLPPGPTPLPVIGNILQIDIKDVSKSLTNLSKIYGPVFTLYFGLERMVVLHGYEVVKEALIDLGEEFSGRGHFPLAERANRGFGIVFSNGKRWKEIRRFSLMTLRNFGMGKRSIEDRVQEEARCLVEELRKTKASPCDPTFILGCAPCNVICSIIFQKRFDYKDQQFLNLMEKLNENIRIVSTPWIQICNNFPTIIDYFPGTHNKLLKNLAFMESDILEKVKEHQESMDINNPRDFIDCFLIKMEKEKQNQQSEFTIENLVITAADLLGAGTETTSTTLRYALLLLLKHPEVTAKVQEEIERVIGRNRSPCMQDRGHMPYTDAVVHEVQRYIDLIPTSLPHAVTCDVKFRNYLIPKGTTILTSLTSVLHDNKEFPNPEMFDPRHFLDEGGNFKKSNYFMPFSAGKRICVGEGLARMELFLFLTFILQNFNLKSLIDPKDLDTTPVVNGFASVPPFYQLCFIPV

[12] = target: FAD-linked sulfhydryl oxidase ALR (Homo sapiens, UniProt P55789); experiment: ALR-catalysed DTT oxidation blockers – biochemical, H2O2 detection, luminescence, cherry-pick, dose response (AID 493248)
Chain of FAD-linked sulfhydryl oxidase ALR (P55789 whole entry): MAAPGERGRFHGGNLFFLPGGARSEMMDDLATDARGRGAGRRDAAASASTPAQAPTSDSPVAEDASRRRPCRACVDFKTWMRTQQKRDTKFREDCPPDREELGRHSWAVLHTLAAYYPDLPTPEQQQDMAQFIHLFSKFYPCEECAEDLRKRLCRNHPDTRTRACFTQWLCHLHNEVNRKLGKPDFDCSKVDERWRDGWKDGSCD

[13] = target: T3, Heat shock factor protein 1; experiment: decrease of HSF1-responsive luciferase luminescence – cell-based, NIH3T3, dose retest, confirmation (AID 2382); format: functional;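 note: NIH3T3 fibroblasts with HSF1-driven luciferase reporter stressed by proteasome inhibitor MG132; luminescence from HSF1-driven luciferase expression after 8 hours of MG132 stress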
[14] = target: Cytochrome P450 2C9 (Homo sapiens, UniProt P11712)
Chain of Cytochrome P450 2C9 (P11712 whole entry): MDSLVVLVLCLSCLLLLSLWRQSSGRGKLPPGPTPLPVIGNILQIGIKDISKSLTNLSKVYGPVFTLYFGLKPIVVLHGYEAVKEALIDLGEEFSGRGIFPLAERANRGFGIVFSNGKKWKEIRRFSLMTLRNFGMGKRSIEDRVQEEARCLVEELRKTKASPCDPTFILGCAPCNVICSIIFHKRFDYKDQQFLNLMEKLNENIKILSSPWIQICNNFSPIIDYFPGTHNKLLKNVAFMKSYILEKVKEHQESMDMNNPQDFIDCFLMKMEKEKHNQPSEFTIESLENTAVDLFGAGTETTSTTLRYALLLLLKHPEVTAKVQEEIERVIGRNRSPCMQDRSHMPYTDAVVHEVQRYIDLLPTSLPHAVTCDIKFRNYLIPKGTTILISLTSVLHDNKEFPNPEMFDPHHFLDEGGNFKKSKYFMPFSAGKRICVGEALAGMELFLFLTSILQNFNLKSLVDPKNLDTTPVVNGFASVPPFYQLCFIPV

[15] = Luminescence Cell-Based Dose Confirmation HTS to Identify Inhibitors of Platelet Dense Granule Release. [Related pubchem assays: 1663 (Primary HTS), 1678 (Summary of Project)]; format: functional
[16] = target: Luciferin 4-monooxygenase (Photinus pyralis, UniProt P08659); experiment: inhibition of purified Photinus pyralis luciferase – biochemical, luminescence, dose response (AID 1891)
Chain of Luciferin 4-monooxygenase (P08659 whole entry): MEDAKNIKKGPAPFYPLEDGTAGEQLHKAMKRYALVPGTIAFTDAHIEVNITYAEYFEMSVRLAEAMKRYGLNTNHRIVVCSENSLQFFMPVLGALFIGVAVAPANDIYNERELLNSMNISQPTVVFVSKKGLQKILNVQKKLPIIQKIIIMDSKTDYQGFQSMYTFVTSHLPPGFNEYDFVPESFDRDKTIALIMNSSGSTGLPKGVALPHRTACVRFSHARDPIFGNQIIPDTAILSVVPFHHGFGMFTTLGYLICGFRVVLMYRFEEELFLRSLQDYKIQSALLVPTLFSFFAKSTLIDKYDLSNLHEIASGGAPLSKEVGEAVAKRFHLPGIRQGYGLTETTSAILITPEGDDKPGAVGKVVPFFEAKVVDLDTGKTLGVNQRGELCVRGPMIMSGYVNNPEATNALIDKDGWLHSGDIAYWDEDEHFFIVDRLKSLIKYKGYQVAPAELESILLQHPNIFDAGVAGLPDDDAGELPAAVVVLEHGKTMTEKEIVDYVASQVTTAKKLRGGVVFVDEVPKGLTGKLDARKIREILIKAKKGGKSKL

[17] = test system: Streptococcus sp. 'group A'; experiment: Streptococcus pyogenes SK(-)GAS viability under kanamycin – luminescence, BacTiterGlo, confirmation, counter-screen for streptokinase expression inhibitor project, dose response (AID 1900); format: functional, organism-based
[18] = test system: Streptococcus; experiment: GAS UMAA2166 growth inhibition – luminescence, BacTiterGlo, counter-screen for streptokinase expression inhibitor project, dose response (AID 1915); format: functional, organism-based;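 note: potency for reduction of bacterial viability or growth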
[19] = Luminescence Cell-Based Dose Retest to Confirm Inhibitors of Cancer Stem Cells. [Related pubchem assays (depositor defined):AID2717, AID2721]; format: functional; settings: Homo sapiens

CC(C)Cc1ccc(C(C)C(=O)Nc2ccccc2O)cc1 (configuration not stated)
AC50 [1]: 6.63 µM (active)
EC50 [2]: 5.7 µM (active)
AC50 [3]: 4.26 µM (active)
AC50 [4]: 1.89 µM (active)

Cc1sc2ncnc(Oc3ccc(-n4ccnc4)cc3)c2c1C
CC50 [5]: > 40 µM (active)

Cc1cc(O)c(C(C)C)cc1NC(=O)Nc1cccc2ccccc12
AC50 [6]: 0.794 µM (inconclusive)
AC50 [7]: 3.16 µM (inconclusive)

COc1ccc(NC(=O)c2[nH]c(C)c(C(C)=O)c2C)cc1S(=O)(=O)Nc1ccc(Br)cc1
EC50 [8]: 1.12 µM (active)
EC50 [9]: > 260 µM (inactive)
EC50 [10]: > 60 µM (not active)

COc1cc(OC)cc(C(=O)NCC(=O)OC2CCOC2=O)c1 (configuration not stated)
AC50 [6]: 0.0316 µM (inconclusive)
AC50 [11]: inconclusive

O=C(NNS(=O)(=O)c1ccc(F)cc1)c1cc2ccccc2cc1O
AC50 [12]: 4.07 µM (active)

CCOC(=O)C1(CCOc2ccccc2)CCN(Cc2cccc(-n3cccn3)c2)CC1
CC50 [5]: > 40 µM (active)
EC50 [13]: > 195 µM (not active)

Cc1nn(C)c(Cl)c1S(=O)(=O)N[C@@H](c1ccccc1)[C@]1(C)C[C@H]1[C@@H](C)C(=O)Nc1ccc2ccccc2c1
AC50 [6]: 5.01 µM (inconclusive)
AC50 [14]: 6.31 µM (inconclusive)

COc1ccccc1NC(=O)c1cc([N+](=O)[O-])ccc1N1CCOCC1
EC50 [15]: > 112 µM (not active)
EC50 [16]: > 112 µM (not active)

COc1ccc(N2CCN(C(=O)c3ccc(SC)cc3OC)CC2)cc1
AC50 [12]: 6.05 µM (active)

FC(F)(F)c1cccc(NC(S)=NCc2ccccn2)c1
EC50 [9]: > 260 µM (inactive)

Cc1ccccc1-c1cncnc1NC1CCNCC1
AC50 [6]: 0.00794 µM (inconclusive)

COc1ccc(NS(=O)(=O)c2ccc3[nH]c(COc4cccc5ccccc45)nc3c2)cc1
EC50 [17]: 6.33 µM (active)
EC50 [18]: 91 µM (active)
CC50 [5]: 32.6 µM (active)
AC50 [19]: 3.87 µM (active)

CCOC(=O)c1sc(NN=C2C(=O)CC(C)(C)CC2=O)c(C(=O)OCC)c1C
EC50 [15]: 20.4 µM (active)
EC50 [16]: > 112 µM (not active)

Cc1ccc(NC(=O)C2CCN(S(=O)(=O)c3ccc4c(c3)NC(=O)C(C)S4)CC2)cc1C (configuration not stated)
AC50 [1]: 68.3 µM (active)
AC50 [3]: 6.43 µM (active)
AC50 [4]: 2.61 µM (active)

CC(C)C(=O)C(C)(C)CCc1ccccn1
AC50 [6]: 2.51 µM (inconclusive)
